Legend:
[1] = target: T1, Cyclooxygenase 2 derived from sheep placentae (Ovis aries, UniProt P79208); experiment: In vitro inhibition of cyclooxygenase 2 activity (synthesis of prostaglandin H2 from 14C-arachidonic acid, TLC autoradiography); details: sheep placenta COX-2, 35° C., 30 min
T1 sequence (P79208 17-603): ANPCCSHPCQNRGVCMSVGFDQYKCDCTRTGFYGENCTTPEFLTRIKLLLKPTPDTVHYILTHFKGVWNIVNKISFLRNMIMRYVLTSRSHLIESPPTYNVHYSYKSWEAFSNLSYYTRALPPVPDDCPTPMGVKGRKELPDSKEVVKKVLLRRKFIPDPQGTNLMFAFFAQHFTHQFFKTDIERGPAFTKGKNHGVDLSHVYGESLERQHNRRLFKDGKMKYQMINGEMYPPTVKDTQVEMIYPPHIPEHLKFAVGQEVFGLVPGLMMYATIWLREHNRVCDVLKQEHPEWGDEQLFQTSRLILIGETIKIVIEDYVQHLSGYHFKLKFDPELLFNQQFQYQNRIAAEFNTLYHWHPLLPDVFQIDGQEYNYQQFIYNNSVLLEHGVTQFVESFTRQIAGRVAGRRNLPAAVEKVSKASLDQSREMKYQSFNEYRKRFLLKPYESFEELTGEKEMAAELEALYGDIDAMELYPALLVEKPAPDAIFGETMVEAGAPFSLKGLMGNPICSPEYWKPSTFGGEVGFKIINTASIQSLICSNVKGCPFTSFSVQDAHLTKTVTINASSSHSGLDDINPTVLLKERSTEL
Description: Arachidonic acid was used as the substrate in the present example. Ten μl of arachidonic acid was dissolved in methanol (10 mg/ml) and mixed with 5 μCi of ^14C-labeled arachidonic acid; and to obtain a dried substrate, the solvent was evaporated by blowing with nitrogen gas at room temperature. Subsequently, the substrate was dissolved in 50 μl of dimethylsulfoxide (DMSO), and 10 ml of 5 mM Tris-HCl buffer (pH 8.0) containing 2 mM phenol was added to the substrate solution, followed by sonication to completely dissolve the sample. Separately, test compounds having final concentrations of 0.1-10 μM were prepared. […] Five μl of each compound solution was added to 5 μl of the above substrate solution, followed by mixing. The samples were then preincubated at 35° C. for about 10 min. Cyclooxygenase 2 derived from sheep placentae (Cayman Chem.) had been separately diluted 10-fold with the above buffer, and 20 μl of the enzyme solution was added to each of the above samples. The enzyme reaction was carried out at 35° C. for 30 min, and stopped by adding 0.5 ml of ice-cold ethanol to each sample. Then, to 0.9 ml of each sample, 2.0 ml of 2% acetic acid solution was added. Arachidonic acid and its metabolite prostaglandin H2 were then extracted with 3.0 ml of ethyl acetate. From each extracted sample, a 2.0-ml portion was transferred to a new test tube. The solvent was distilled off from the transferred samples under reduced pressure, and the samples were dried in vacuo. Then each dried sample was dissolved in 100 μl of methanol, out of which 5 μl was subjected to analysis by high resolution thin layer chromatography. Arachidonic acid and its metabolite prostaglandin H2 were separated by chromatography with a developing solution of chloroform, ethyl acetate, methanol, acetic acid and water in proportions of 70:30:8:1:0.5 (v/v). The chromatography plate, together with a ^14C-standard substance, was exposed to an imaging plate (Fuji Film), and was analyzed with Fuji Film Bio-Image analyzer BAS-2000 to obtain an autoradiogram. By scanning of spots corresponding to the standard radioactive samples, a standard dose-response curve was plotted. Then, by use of the standard curve, each scanned value of arachidonic acid spots and prostaglandin H2 spots was converted to a amount of radiation. Indomethacin was purchased from Sigma, and PZ25 was a gift from Rhone-Poulenc Rorer.

[2] = LD50 determination, intraperitoneal administration; details: mouse, in vivo, ip
rat = experiment: LD50 determination in rats; type: in vivo
[3] = LD50 determination, oral administration; details: mouse, in vivo

In the case of `O=c1c2ccccc2sn1-c1ccccc1` [PZ25, 2-phenyl-1,2-benzisothiazol-3(2H)-one, reference compound], the “Generated Amount of Prostaglandin H2 (%)” value ([1]; dose of compound 3 μM) was 103.25 ± 9.29%, the “Generated Amount of Prostaglandin H2 (%)” value ([1]; dose of compound 10 μM) was 103.53 ± 11.2% and the “Generated Amount of Prostaglandin H2 (%)” value ([1]; dose of compound 30 μM) was 93.9 ± 9.06%.

For `O=c1c2ccccc2[se]n1-c1ccccc1` [Compound A, 2-phenyl-1,2-benzisoselenazol-3(2H)-one], the LD50 [2] was 740 mg/kg, the “Generated Amount of Prostaglandin H2 (%)” value ([1]; dose of compound 1 μM) was 91.8 ± 14.3% and the “Generated Amount of Prostaglandin H2 (%)” value ([1]; dose of compound 3 μM) was 78.6 ± 5.28%. For the same compound, the “Generated Amount of Prostaglandin H2 (%)” value ([1]; dose of compound 10 μM) was 46.88 ± 6.49 %, the “Generated Amount of Prostaglandin H2 (%)” value ([1]; dose of compound 30 μM) was 20.10 ± 1.95 % and the LD50 (rat) was “large doses were required”. It also gave an LD50 [3] of no less than 6810 mg/kg.

— US6495517B2, “Cyclooxygenase inhibitor” (A. Natterman & Cie. GmbH, priority 1998, dated 2002)
